These results are taken from patent US20090118253A1, “COMPOSITIONS AND METHODS FOR TREATING DYSFUNCTIONAL UTERINE BLEEDING” (REPROS THERAPEUTICS INC., priority 2007, published 2009).

The subject of test [1] is rabbit progesterone receptor (rbPR) and glucocorticoid receptor (rbGR). As to the kind of experiment: Receptor-binding assays, ratio of relative binding affinities rbPR/rbGR. The following applies: ratio of relative binding affinities (RBA = EC50 of standard/EC50 of test compound x 100) for rbPR and rbGR. How it is done: Certain antiprogestins were tested in receptor-binding assays for their ability to bind rabbit progesterone receptor (rbPR) and glucocorticoid receptor (rbGR). Briefly, cytosol containing PR or GR were prepared in TEGMD buffer (10 mM Tris, pH 7.2, 1.5 mM EDTA, 0.2 mM sodium molybdate, 10% glycerol, 1 mM DTT) from uterus or thymus, respectively, of estradiol-primed immature rabbits. For PR binding, the cytosol was incubated with 6 nM 1,2-[^3H]progesterone (50.0 Ci/mmole) and competitors were added at concentrations from 2 to 100 nM. For binding to GR, the cytosol was incubated with 6 nM 6,7-[^3H]-dexamethasone (40 Ci/mmol) and test compounds were added at concentrations from 20 to 100 nM. After overnight incubation at 4 C, bound and unbound [^3H] steroids were separated by addition of dextran-coated charcoal and centrifugation at 2100×g for 15 min at 4 C. Supernatants containing the [3H]-steroid receptor complexes were decanted into vials containing 4 ml Optifluor (Packard Instrument Co.), vortexed, equilibrated in a liquid scintillation counter for 30 minutes and then counted for 2 minutes. The EC50 (Effective Concentration) for each standard curve and each of the compound curves was determined by entering the counting data into a four parameter sigmoidal computer program (RiaSmart® Immunoassay Data Reduction Program, Packard Instrument Co., Meriden, Conn.). Relative binding affinity (RBA) for each compound was calculated using the following equation: EC50 of standard/EC50 of test compound×100. The standards for the PR and GR assays were unlabeled progesterone and dexamethasone, respectively. The results of these experiments are summarized in Table 1, as a ratio of the relative binding affinities of each compound for the rbPR and rbGR receptors (rbPR/rbGR).

The test system of test [2] is progesterone-induced endometrial glandular proliferation in rabbit uterus. Put plainly: anti-McGinty and anti-Clauberg assays in the rabbit uterus. The test is classed as in vivo. The following applies: average of anti-McGinty and anti-Clauberg results relative to CDB-2914 (=1.00). From the text:
Also given in Table 1 are the relative biological activities of the same compounds in the rabbit uterus by the anti-McGinty and anti-Clauberg assays. Compound CDB-2914 (listed at the end of the Table) was used as the control or reference compound (rabbit Biological Activity=1.00) for these experiments because results of experiments using CDB-2914 have been published before (Hild-Petito et al., 1996; Passaro et al., 1997; Reel et al., 1998; Lamer et al., 2000). For the anti-McGinty test, immature female rabbits received a subcutaneous injection of 5 μg estradiol in 10% ethanol/sesame oil daily for 6 consecutive days. On day 7, animals underwent sterile abdominal surgery to ligate a 3-4 cm segment of both uterine horns. The test compound in appropriate solvent was injected intraluminally into the ligated segment of one uterine horn and vehicle alone into the other. A stimulating dose of progesterone (267 μg/day) was administered subcutaneously to each rabbit daily for the next three days to induce endometrial proliferation. All animals were sacrificed at day 10 for removal of the uterus where a segment central to the ligatures was removed and fixed in 10% neutral buffered formalin and submitted for histological processing. Five micron sections stained with hematoxylin and cosin were evaluated microscopically for the degree of endometrial glandular proliferation. The percent inhibition of endometrial proliferation for each rabbit was calculated and the mean of the group of five animals recorded. For the Anti-Clauberg test, immature female rabbits received a subcutaneous injection of 5 μg estradiol in 10% ethanol/sesame oil daily for 6 consecutive days. On day 7, animals received progesterone by subcutaneous injection (160 μg/day) and the experimental compound in appropriate vehicle orally or subcutaneously for five consecutive days. One group of rabbits received progesterone only. Twenty-four hours after the last dose, all animals were sacrificed for removal of the uterus which was cleaned of all fat and connective tissue, weighed to the nearest 0.2 mg and placed in 10% neutral buffered formalin for subsequent histological processing. Five micron sections stained with hematoxylin and eosin were evaluated microscopically for the degree of endometrial glandular proliferation. The percent inhibition of endometrial proliferation at each dose level of the test compound was derived by comparison with progesterone-stimulated animals alone. The data presented in Table 1 (rabbit Biol. Act.) reflects the average of the results obtained for each compound by the anti-McGinty and anti-Clauberg assays relative to CDB-2914.

For `CC(=O)O[C@]1(C(=O)C[S+](C)[O-])CCC2C3CCC4=CC(=O)CCC4=C3C(c3ccc(N(C)C)cc3)C[C@@]21C` (stereo partly drawn) [CDB-4101, 21-methoxythio-17α-acetoxy-11β-(4 N,N-dimethylaminophenyl)-19-norpregna-4,9-diene-3,20-dione], the rbPR/rbGR in test [1] came out at 0.61. The “rabbit Biol. Act.” value in test [2] came to 0.65.
In the case of `C=COCC(=O)[C@@]1(OC(C)=O)CCC2C3CCC4=CC(=O)CCC4=C3C(c3ccc(N(C)C)cc3)C[C@@]21C` (stereo partly drawn) [CDB-4361, 21-vinyl ether-17α-acetoxy-11β-(4 N,N-dimethylaminophenyl)-19-norpregna-4,9-diene-3,20-dione], the rbPR/rbGR in test [1] is given as 7.20. The “rabbit Biol. Act.” value in test [2] stood at 3.03.
On the same counts, the results for `CCOCC(=O)C1(OC(C)=O)CCC2C3CCC4=CC(=NO)CCC4=C3C(c3ccc(N(C)C)cc3)C[C@@]21C` (stereo partly drawn) [CDB-4226, 3-hydroxyamino-21-ethyloxy-17α-acetoxy-11β-(4 N,N-dimethylaminophenyl)-19-norpregna-4,9-diene-3,20-dione] are 1.51 and 0.54.
`CC(=O)O[C@]1(C(=O)CO)CCC2C3CCC4=CC(=O)CCC4=C3C(c3ccc(N(C)C)cc3)C[C@@]21C` (stereo partly drawn) [CDB-4152, 21-hydroxy-17α-acetoxy-11β-(4 N,N-dimethylaminophenyl)-19-norpregna-4,9-diene-3,20-dione]: in test [1], the rbPR/rbGR came to 0.82. Moreover, in test [2], the “rabbit Biol. Act.” value is reported as 1.40.
For `CSCC(=O)[C@@]1(OC(C)=O)CCC2C3CCC4=CC(=O)CCC4=C3C(c3ccc(N(C)C)cc3)C[C@@]21C` (stereo partly drawn) [CDB-4223, 21-methylthio-17α-acetoxy-11β-(4 N,N-dimethylaminophenyl)-19-norpregna-4,9-diene-3,20-dione], the rbPR/rbGR in test [1] is given as 1.17.
Regarding `COCC(=O)[C@@]1(OC(C)=O)CCC2C3CCC4=C(C(=O)c5ccccc5)C(=O)CCC4=C3C(c3ccc(N(C)C)cc3)C[C@@]21C` (stereo partly drawn) [CDB-4239, 4-benzoin-21-methoxy-17α-acetoxy-11β-(4 N,N-dimethylaminophenyl)-19-norpregna-4,9-diene-3,20-dione], the rbPR/rbGR in test [1] is 14.80. The “rabbit Biol. Act.” value in test [2] is 0.60.
Taken in the same sequence, the figures for `CCOCC(=O)[C@@]1(OC(C)=O)CCC2C3CCC4=CC(=O)CCC4=C3C(c3ccc(N(C)C)cc3)C[C@@]21C` (stereo partly drawn) [CDB-4167, 21-ethyloxy-17α-acetoxy-11β-(4 N,N-dimethylaminophenyl)-19-norpregna-4,9-diene-3,20-dione] were 1.69 and 1.50.
On the same counts, the results for `CCC(=O)OCC(=O)[C@@]1(OC(C)=O)CCC2C3CCC4=CC(=O)CCC4=C3C(c3ccc(N(C)C)cc3)C[C@@]21C` (stereo partly drawn) [CDB-4247, 21-propio[1]nyloxy-17α-acetoxy-1 1β-(4 N,N-dimethylaminophenyl)-19-norpregna-4,9-diene-3,20-dione] are 2.06 and 1.70.
On the same counts, the results for `CC(=O)O[C@]1(C(=O)CSC(C)=O)CCC2C3CCC4=C(C(=O)c5ccccc5)C(=O)CCC4=C3C(c3ccc(N(C)C)cc3)C[C@@]21C` (stereo partly drawn) [CDB-4119, 4-benzoin-21-acetylthio-17α-acetoxy-11β-(4 N,N-dimethylaminophenyl)-19-norpregna-4,9-diene-3,20-dione] are 2.60 and 0.10.
Take `CC(=O)O[C@]1(C(=O)CF)CCC2C3CCC4=CC(=O)CCC4=C3C(c3ccc(N(C)C)cc3)C[C@@]21C` (stereo partly drawn) [CDB-4058, 21-flourine-17α-acetoxy-11β-(4 N,N-dimethylaminophenyl)-19-norpregna-4,9-diene-3,20-dione]: in test [1], the rbPR/rbGR is reported as 1.08. Further, in test [2], the “rabbit Biol. Act.” value was determined as 0.90.
Taken in the same sequence, the figures for “21-methoxyacetyl-17α-acetoxy-11β-(4 N,N-dimethylaminophenyl)-19-norpregna-4,9-diene-3,20-dione [CDB-4362]” were 4.74 and 1.25.
On the same counts, the results for “2 11-(Cyp*-hydroxy)-17α-acetoxy-11β-(4 N,N-dimethylaminophenyl)-19-norpregna-4,9-diene-3,20-dione [CDB-4125]” are 1.19 and 1.55.
In the case of `CCC(=O)[C@@]1(OC(C)=O)CCC2C3CCC4=CC(=O)CCC4=C3C(c3ccc(N(C)C)cc3)C[C@@]21C` (stereo partly drawn) [CDB-4030, 21-methyl-17α-acetoxy-11β-(4 N,N-dimethylaminophenyl)-19-norpregna-4,9-diene-3,20-dione], in test [1], the rbPR/rbGR was 0.96. Besides, the “rabbit Biol. Act.” value in test [2] was determined as 0.30.
Regarding `CC(=O)O[C@]1(C2COC(C)(C)O2)CCC2C3CCC4=CC(=O)CCC4=C3C(c3ccc(N(C)C)cc3)C[C@@]21C` (stereo partly drawn) [CDB-4110, 21-acetonide-17α-acetoxy-11β-(4 N,N-dimethylaminophenyl)-19-norpregna-4,9-diene-3,20-dione], the rbPR/rbGR in test [1] is recorded as 0.70. In addition, the “rabbit Biol. Act.” value in test [2] turned out to be 0.10.
Take `CC(=O)OCC(=O)C1(OC(C)=O)CCC2C3CCC4=CC(=NO)CCC4=C3C(c3ccc(N(C)C)cc3)C[C@@]21C` (stereo partly drawn) [CDB-4206, 3-hydroxyamino-21-acetoxy-17α-acetoxy-11β-(4 N,N-dimethylaminophenyl)-19-norpregna-4,9-diene-3,20-dione]: the rbPR/rbGR in test [1] is recorded as 1.44. Besides, the “rabbit Biol. Act.” value in test [2] came out at 0.68.
In the case of `CC(=O)O[C@]1(C(=O)CBr)CCC2C3CCC4=CC(=O)CCC4=C3C(c3ccc(N(C)C)cc3)C[C@@]21C` (stereo partly drawn) [CDB-4031, 21-bromine-17α-acetoxy-11β-(4 N,N-dimethylaminophenyl)-19-norpregna-4,9-diene-3,20-dione], the rbPR/rbGR in test [1] is recorded as 0.69. Further, the “rabbit Biol. Act.” value in test [2] was 0.70.
On the same counts, the results for “21-BMD-17α-acetoxy-11β-(4 N,N-dimethylaminophenyl)-19-norpregna-4,9-diene-3,20-dione [CDB-4111]” are 1.30 and 0.36.
`CC(=O)O[C@]1(C(=O)COC(=O)CN)CCC2C3CCC4=CC(=O)CCC4=C3C(c3ccc(N(C)C)cc3)C[C@@]21C` (stereo partly drawn) [CDB-4306, 21-glycinate-17α-acetoxy-11β-(4 N,N-dimethylaminophenyl)-19-norpregna-4,9-diene-3,20-dione]: the rbPR/rbGR in test [1] is given as 5.90. The “rabbit Biol. Act.” value in test [2] was 0.95.
As to `CC(=O)O[C@]1(C(=O)CSC#N)CCC2C3CCC4=CC(=O)CCC4=C3C(c3ccc(N(C)C)cc3)C[C@@]21C` (stereo partly drawn) [CDB-4352, 21-cyanothio-17α-acetoxy-11β-(4 N,N-dimethylaminophenyl)-19 norpregna-4,9-diene-3,20-dione], the rbPR/rbGR in test [1] stood at 4.21. The “rabbit Biol. Act.” value in test [2] is recorded as 0.57.
As to `COCC(=O)C1(OC(C)=O)CCC2C3CCC4=CC(=NO)CCC4=C3C(c3ccc(N(C)C)cc3)C[C@@]21C` (stereo partly drawn) [CDB-4205, 3-hydroxyamino-2 1-methoxy-17α-acetoxy-11β-(4 N,N-dimethylaminophenyl)-19-norpregna-4,9-diene-3,20-dione], the rbPR/rbGR in test [1] is listed as 1.99. Also, the “rabbit Biol. Act.” value in test [2] came out at 1.00.
